In US9120761B2, “Selective FAK inhibitors” (priority 2011, dated 2015):
Where two headings read alike, the source gives them in different places.

Legend:
[1] = target: FAK enzyme (catalytic domain, amino acids 411-686) (Homo sapiens (Human), UniProt Q05397); test: FAK biochemical Alpha Screen assay; settings: 80 μM ATP
[2] = target: N-terminally GST-fused purified FAK enzyme (Homo sapiens (Human), UniProt Q05397); test: FAK Biacore SPR assay; format: binding
Protocol: Binding parameters of compounds were determined using a Biacore™ S51 sensor. An anti-GST antibody was immobilized onto a CM5 chip by primary amine-coupling in accordance with the manufacturer's recommendations.
Concentration series' of the test compounds were injected over the spots at 25° C.
After the injection cycle of a compound the chip surface was regenerated with 10 mM glycine-HCl, pH2.2 before capturing the enzyme again.

[3] = tested on: MDA-231-LNA cells; test: 2D cellular proliferation assay; format: cell-based; settings: 72 h, 3 days incubation, resazurin
[4] = target: VEGFR3 cytoplasmic domain (Homo sapiens, UniProt P35916); test: VEGFR3 biochemical assay (Alpha Screen); settings: N-terminal GST-fusion protein (amino acids 798-1298), 500 μM ATP
[5] = tested on: MDA-231-LNA tumours; test: Combination study efficacy and tolerability with dasatinib, IMFP MDA-231-LNA tumours; format: in vivo; settings: Compound 3 40 mg/kg p.o. BID, dasatinib 30 mg/kg p.o. BID; Balb/c SCID mice, MDA-231-LNA primary tumour
Protocol: Treatment commenced when tumours were palpable (day 9 post cell injection) and continued for the duration of the experiment. The formulations used were the same as those above, with the vehicle (I-IPMC-SV, 0.2 ml), being administered as a control.
As additional markers of potential hepatotoxicity, liver weight at harvest as well as alanine aminotransferase (ALT) and aspartate transaminase (AST) levels were determined in plasma 12 hours after the final dose of drug.

[6] = target: VEGFR3 cytoplasmic domain (Homo sapiens, UniProt P35916, DEL949-1002); test: VEGFR3 biochemical assay (Alpha Screen); settings: modified form (*): N-terminal Hexa-His-fusion protein, amino acids 818-1177 lacking 949-1002
[7] = tested on: taxane-sensitive (SKOV3ip1 and HeyA8) and taxane-resistant (HeyA8-MDR) ovarian cancer cell lines; settings: cited from earlier work
[8] = tested on: HeyA8, SKOV3ip1, and HeyA8-MDR models; settings: cited from earlier work
[9] = target: FAK (Homo sapiens (Human), UniProt Q05397); settings: in vitro; cited from earlier work
Sequence of FAK (Q05397 whole entry): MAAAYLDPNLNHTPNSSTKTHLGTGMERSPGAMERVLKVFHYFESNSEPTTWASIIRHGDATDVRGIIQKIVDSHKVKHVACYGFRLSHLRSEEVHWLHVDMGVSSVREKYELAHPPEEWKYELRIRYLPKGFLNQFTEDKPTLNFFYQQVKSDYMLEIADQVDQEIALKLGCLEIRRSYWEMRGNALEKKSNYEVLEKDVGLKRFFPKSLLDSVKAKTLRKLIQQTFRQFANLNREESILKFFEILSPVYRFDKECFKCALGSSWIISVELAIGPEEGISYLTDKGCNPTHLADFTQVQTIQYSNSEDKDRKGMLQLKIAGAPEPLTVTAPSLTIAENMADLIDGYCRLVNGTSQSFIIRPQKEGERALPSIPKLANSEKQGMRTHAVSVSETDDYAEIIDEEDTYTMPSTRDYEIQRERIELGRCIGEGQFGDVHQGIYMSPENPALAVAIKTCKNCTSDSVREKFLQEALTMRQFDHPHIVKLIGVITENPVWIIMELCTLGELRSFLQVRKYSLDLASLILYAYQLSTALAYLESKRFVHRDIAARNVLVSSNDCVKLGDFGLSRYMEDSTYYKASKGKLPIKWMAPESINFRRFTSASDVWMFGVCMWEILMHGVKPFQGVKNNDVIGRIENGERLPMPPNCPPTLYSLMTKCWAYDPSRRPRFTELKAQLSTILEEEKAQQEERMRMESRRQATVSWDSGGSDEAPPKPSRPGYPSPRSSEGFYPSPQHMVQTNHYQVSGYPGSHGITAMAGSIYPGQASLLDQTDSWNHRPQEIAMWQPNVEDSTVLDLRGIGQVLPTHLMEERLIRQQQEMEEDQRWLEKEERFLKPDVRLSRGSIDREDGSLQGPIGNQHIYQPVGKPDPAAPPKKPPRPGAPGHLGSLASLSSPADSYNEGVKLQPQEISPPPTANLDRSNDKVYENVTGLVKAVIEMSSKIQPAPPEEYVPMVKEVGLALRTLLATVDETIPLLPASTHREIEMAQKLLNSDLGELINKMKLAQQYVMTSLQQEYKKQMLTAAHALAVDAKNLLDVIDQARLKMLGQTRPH

Sequence of N-terminally GST-fused purified FAK enzyme (Q05397 whole entry, the tested form may be a part): as the sequence (Q05397 whole entry) above
Sequence of VEGFR3 cytoplasmic domain (Homo sapiens, UniProt P35916, DEL949-1002) (P35916 with tags, fused parts or gaps DEL949-1002 limits assumed): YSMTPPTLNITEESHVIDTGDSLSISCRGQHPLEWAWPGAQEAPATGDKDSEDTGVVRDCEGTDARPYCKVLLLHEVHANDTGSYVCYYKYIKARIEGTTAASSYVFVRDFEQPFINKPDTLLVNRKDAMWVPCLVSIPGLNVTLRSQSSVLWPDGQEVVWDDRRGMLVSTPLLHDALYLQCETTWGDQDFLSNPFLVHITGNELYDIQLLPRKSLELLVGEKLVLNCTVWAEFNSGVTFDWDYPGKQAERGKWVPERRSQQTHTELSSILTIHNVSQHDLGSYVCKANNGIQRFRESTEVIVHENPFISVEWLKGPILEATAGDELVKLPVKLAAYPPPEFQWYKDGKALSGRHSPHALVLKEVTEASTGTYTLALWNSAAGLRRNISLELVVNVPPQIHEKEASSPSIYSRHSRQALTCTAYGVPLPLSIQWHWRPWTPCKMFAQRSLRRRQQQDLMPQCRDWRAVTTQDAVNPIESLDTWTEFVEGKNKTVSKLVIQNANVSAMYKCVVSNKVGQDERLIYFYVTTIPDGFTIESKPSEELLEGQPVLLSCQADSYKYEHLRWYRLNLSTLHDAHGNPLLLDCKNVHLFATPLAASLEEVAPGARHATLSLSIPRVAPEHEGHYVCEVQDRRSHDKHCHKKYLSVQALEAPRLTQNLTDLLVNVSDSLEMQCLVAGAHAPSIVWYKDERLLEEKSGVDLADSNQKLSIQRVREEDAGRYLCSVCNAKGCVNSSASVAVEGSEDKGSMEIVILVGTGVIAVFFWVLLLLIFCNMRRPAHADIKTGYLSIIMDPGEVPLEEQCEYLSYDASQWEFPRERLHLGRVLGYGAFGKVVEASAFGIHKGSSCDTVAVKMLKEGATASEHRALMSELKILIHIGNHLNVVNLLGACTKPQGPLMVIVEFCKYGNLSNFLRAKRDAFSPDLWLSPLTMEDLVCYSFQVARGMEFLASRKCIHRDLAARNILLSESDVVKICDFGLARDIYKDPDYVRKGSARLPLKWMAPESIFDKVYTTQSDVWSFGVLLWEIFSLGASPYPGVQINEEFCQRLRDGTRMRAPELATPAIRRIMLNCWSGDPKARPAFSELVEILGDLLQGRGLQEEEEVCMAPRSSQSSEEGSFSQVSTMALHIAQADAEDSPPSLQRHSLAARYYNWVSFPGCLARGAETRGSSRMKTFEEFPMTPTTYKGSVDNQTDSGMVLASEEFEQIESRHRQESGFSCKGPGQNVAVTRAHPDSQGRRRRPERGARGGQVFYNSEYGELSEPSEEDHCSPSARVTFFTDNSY
Sequence of VEGFR3 cytoplasmic domain (Homo sapiens, UniProt P35916) (P35916 25-1363 limits assumed): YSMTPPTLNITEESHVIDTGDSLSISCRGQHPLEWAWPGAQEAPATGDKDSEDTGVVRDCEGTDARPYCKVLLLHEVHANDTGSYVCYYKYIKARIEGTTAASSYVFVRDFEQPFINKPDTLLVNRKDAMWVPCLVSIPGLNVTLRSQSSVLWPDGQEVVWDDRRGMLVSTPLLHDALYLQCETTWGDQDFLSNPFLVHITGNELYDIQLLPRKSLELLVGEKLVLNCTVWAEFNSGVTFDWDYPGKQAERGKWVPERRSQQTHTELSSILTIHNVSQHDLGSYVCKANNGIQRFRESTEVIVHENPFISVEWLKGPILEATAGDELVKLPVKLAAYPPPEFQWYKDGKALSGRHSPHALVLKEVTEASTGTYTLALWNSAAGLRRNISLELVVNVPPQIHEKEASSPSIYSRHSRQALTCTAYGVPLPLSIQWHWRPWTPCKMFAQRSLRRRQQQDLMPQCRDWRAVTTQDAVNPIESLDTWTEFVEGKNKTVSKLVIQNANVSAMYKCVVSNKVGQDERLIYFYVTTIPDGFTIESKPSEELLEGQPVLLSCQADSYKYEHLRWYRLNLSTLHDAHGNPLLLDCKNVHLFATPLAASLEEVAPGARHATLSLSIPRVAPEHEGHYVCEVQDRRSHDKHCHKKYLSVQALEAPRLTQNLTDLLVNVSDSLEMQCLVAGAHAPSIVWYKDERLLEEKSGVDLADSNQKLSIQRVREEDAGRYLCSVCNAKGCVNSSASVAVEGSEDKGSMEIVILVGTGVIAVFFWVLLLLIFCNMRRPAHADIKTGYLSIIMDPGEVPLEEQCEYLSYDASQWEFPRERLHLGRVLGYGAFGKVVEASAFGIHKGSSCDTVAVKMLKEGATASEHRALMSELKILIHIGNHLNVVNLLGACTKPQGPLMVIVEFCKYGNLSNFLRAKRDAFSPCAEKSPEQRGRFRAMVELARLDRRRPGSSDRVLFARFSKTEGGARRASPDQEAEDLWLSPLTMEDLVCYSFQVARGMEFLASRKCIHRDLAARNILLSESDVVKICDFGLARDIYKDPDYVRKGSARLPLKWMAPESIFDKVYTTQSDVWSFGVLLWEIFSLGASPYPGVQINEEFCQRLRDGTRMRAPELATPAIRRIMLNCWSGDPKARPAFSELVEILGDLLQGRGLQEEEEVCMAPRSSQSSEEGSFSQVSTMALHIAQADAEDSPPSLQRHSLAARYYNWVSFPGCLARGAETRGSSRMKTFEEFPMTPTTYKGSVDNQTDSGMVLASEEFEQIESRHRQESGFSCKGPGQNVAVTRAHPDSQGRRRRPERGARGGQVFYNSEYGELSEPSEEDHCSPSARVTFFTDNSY
Sequence of FAK enzyme (catalytic domain, amino acids 411-686) (Q05397 411-686): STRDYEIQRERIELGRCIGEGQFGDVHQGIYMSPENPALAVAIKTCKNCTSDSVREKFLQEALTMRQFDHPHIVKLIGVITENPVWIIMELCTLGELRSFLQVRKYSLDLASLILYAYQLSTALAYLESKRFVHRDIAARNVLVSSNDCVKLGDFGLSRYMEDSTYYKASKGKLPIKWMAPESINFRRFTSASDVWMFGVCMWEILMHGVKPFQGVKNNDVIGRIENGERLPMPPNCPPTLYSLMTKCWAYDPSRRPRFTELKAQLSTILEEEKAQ

Structure (SMILES)	IC50 [1] [nM]	IC50 [3] [nM]	IC50 [4] [nM]	Kd ([2]; Biacore S51, 25° C.) [nM]	IC50 [6] [nM]	further results
COc1cc(C2CCN(C)CC2)ccc1Nc1ncc(C(F)(F)F)c(CCc2ccccc2CC(N)=O)n1 [Compound 3, 2-(2-(2-(2-((2-Methoxy-4-(1-methylpiperidin-4-yl)phenyl)amino)-5-(trifluoromethyl)pyrimidin-4-yl)ethyl)phenyl)acetamide]	2.2	6620	538			Kd ([2]; Biacore S51, measured using an extended washing step of 30 minutes): 0.21 nM; TGI based on tumour weight [5]: 42%
COc1cc(C2CCN(C)CC2)ccc1Nc1ncc(C(F)(F)F)c(CCc2cccc(C(N)=O)c2)n1 [Compound 6, 3-(2-(2-((2-Methoxy-4-(1-methylpiperidin-4-yl)phenyl)amino)-5-(trifluoromethyl)pyrimidin-4-yl)ethyl)benzamide]	2.1	2240	10400	2.9		
CN1CCC(c2ccc(Nc3ncc(C(F)(F)F)c(CCc4ccccc4CC(N)=O)n3)c(F)c2)CC1 [Compound 13, 2-(2-(2-(2-((2-Fluoro-4-(1-methylpiperidin-4-yl)phenyl)amino)-5-(trifluoromethyl)pyrimidin-4-yl)ethyl)phenyl)acetamide]	5.6	2760	205			
CCN1CCC(c2ccc(Nc3ncc(C(F)(F)F)c(CCc4cccc(C(N)=O)c4)n3)c(OC)c2)CC1 [Compound 7]	9.4	4930			13300	
CCc1cc(C2CCN(C)CC2)ccc1Nc1ncc(C(F)(F)F)c(CCc2ccccc2CC(N)=O)n1 [Compound 9, 2-(2-(2-(2-((2-Ethyl-4-(1-methylpiperidin-4-yl)phenyl)amino)-5-(trifluoromethyl)pyrimidin-4-yl)ethyl)phenyl)acetamide]		2900				
CCc1cc(C2CCNCC2)ccc1Nc1ncc(C(F)(F)F)c(CCc2ccccc2CC(N)=O)n1 [Compound 8, 2-(2-(2-(2-((2-Ethyl-4-(piperidin-4-yl)phenyl)amino)-5-(trifluoromethyl)pyrimidin-4-yl)ethyl)phenyl)acetamide]		2480	1180			
CNC(=O)c1ccccc1Nc1nc(Nc2ccc(N3CCOCC3)cc2OC)ncc1Cl [TAE226]						cell growth ([7]; in vitro): inhibited cell growth in a time- and dose-dependent manner; enhancement of docetaxel-mediated growth inhibition ([7]; taxane-resistant cell lines): 20 fold; enhancement of docetaxel-mediated growth inhibition ([7]; taxane-sensitive cell lines): 10 fold; reduction of tumour burden compared with vehicle-treated controls [8]: 46-64%; phosphorylation of FAK at Y397 and Y861 sites [9]: inhibited
CCN1CCC(c2ccc(Nc3ncc(C(F)(F)F)c(CCc4ccccc4CC(N)=O)n3)c(OC)c2)CC1 [Compound 4, 2-(2-(2-(2-((4-(1-Ethylpiperidin-4-yl)-2-methoxyphenyl)amino)-5-(trifluoromethyl)pyrimidin-4-yl)ethyl)phenyl) acetamide]	3.6	1910		1.5		
COc1cc(C2CCNCC2)ccc1Nc1ncc(C(F)(F)F)c(CCc2cccc(C(N)=O)c2)n1 [Compound 5, 3-(2-(2-((2-Methoxy-4-(piperidin-4-yl)phenyl)amino)-5-(trifluoromethyl)pyrimidin-4-yl)ethyl)benzamide]	7.2	3060			5750	
COc1cc(N2CCNCC2)ccc1Nc1ncc(C(F)(F)F)c(CCc2ccccc2CC(N)=O)n1 [Compound 1, 2-(2-(2-(2-((2-Methoxy-4-(piperazin-1-yl)phenyl)amino)-5-(trifluoromethyl)pyrimidin-4-yl)ethyl)phenyl)acetamide]	1.9	1430		0.29	275	
NC(=O)Cc1ccccc1CCc1nc(Nc2ccc(C3CCNCC3)cc2OC(F)(F)F)ncc1C(F)(F)F [Compound 10, 2-(2-(2-(2-((4-(Piperidin-4-yl)-2-(trifluoromethoxy)phenyl)amino)-5-(trifluoromethyl)pyrimidin-4-yl)ethyl)phenyl)acetamide]	2.7	1690	> 66000	0.79		
COc1cc(C2CCNCC2)ccc1Nc1ncc(C(F)(F)F)c(CCc2ccccc2CC(N)=O)n1 [Compound 2, 2-(2-(2-(2-((2-Methoxy-4-(piperidin-4-yl)phenyl)amino)-5-(trifluoromethyl)pyrimidin-4-yl)ethyl)phenyl)acetamide]	7.1	2770		0.74	3680	
CN1CCC(c2ccc(Nc3ncc(C(F)(F)F)c(CCc4ccccc4CC(N)=O)n3)c(OC(F)(F)F)c2)CC1 [Compound 11, 2-(2-(2-(2-((4-(1-Methylpiperidin-4-yl)-2-(trifluoromethoxy)phenyl)amino)-5-(trifluoromethyl)pyrimidin-4-yl)ethyl)phenyl)acetamide]	2.2	2580	59800	1.7		
